Patent publication US20230150970A1, “AMINOPYRIMIDINE DERIVATIVES AND THEIR USE AS ARYL HYDROCARBON RECEPTOR MODULATORS” (DONG-A ST CO., LTD., priority 2020, published 2023)

Each compound was assayed against T1, AhR (Homo sapiens, UniProt P35869) (assay: In Vitro Assay 1: XRE-luciferase reporter assay, antagonism in human cell line (HepG2)). Settings: Assay 1: AhR-Luc Human Antagonism (IC50, nM), values marked *: kynurenine 50 μM, 6 hours.
T1 sequence (P35869 11-848): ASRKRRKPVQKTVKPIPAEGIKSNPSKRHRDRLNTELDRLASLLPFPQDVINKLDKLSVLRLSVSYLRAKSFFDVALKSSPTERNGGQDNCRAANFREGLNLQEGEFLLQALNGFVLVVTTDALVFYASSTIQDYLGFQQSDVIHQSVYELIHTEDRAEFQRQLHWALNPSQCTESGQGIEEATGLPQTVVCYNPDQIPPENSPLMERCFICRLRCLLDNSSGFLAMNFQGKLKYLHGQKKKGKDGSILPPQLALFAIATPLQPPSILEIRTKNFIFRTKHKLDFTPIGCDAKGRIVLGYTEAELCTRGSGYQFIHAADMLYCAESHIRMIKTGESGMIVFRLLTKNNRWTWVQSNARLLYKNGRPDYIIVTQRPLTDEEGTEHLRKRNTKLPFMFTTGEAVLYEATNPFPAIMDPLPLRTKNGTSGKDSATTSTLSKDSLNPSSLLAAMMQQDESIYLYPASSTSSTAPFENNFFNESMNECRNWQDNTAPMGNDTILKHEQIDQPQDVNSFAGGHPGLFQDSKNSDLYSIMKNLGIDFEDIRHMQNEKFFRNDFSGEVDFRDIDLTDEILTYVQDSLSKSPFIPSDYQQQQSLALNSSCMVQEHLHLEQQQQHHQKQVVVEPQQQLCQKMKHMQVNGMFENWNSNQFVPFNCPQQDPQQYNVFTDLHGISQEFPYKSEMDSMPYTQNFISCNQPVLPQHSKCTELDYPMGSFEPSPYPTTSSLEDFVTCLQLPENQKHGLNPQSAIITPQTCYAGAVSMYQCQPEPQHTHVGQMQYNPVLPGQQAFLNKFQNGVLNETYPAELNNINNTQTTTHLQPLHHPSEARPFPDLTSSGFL
From the text: In Vitro XRE-Luciferase Reporter Assay (In Vitro Assay 1, 2, 3) AhR activation leads the induction of target gene expression such as CYP1A1 and CYPIB1 by AhR binding to AhR-responsive DNA elements also known as xenobiotics responsive elements (XREs). The assay for measuring AhR activity herein is the luciferase assay using cell lines transfected with luciferase reporter plasmid containing XREs at the upstream of the reporter gene. Cells transfected with XRE-luciferase reporter (XRE-Luc), plasmid drive luciferase activity reflecting activation and inhibition of AhR in the cells. […] Kynurenine (an endogenous AhR agonist), was used to stimulate cells to test antagonistic properties of the compounds. The half-maximal inhibitory concentration (IC50), or half-maximal effective concentration (EC50), value was calculated using nonlinear regression (four parameters), with Prism8.0 software (GraphPad).
In Vitro Assay 1: Antagonism in Human Cell Line
HepG2 (human hepatoma cell line) cell line with a XRE-luciferase reporter either transiently or stably (Invivogen) were plated in complete medium and incubated at 37° C. in a CO2 incubator. After 24 hours, cells were treated with kynurenine (50* or 200 μM) alone (negative control) or with test compounds for 6 hours. Luciferase activity was measured with a commercial kit such as the Promega Luciferase kit or Invivogen Luciferase kit. Relative luciferase activity (Firefly/Nano-Luc) was used to calculate IC50 values. […] (IC50 values are grouped as A, B, C and D, whereby A: IC50<0.01 μM; B: 0.01<IC50<0.1 μM; C: 0.1<IC50<1.0 μM; D: IC50>1.0 μM)

Row | Compound | IC50
1 | Clc1ccc(-c2cc(NCc3ccccn3)nc(-c3cccnc3)n2)cc1 [Example 31, 6-(4-chlorophenyl)-N-(pyridin-2-ylmethyl)-2-(pyridin-3-yl)pyrimidin-4-amine] | 100 to 1000 nM
2 | Clc1ccc(-c2cc(NCc3ccncc3)nc(-c3cccnc3)n2)cc1 [Example 33, 6-(4-chlorophenyl)-2-(pyridin-3-yl)-N-(pyridin-4-ylmethyl)pyrimidin-4-amine] | 100 to 1000 nM
3 | O[C@@H]1CCCN(c2cc(-c3ccc(Cl)cc3)nc(-c3cccnc3)n2)C1 [Example 38, (R)-1-(6-(4-chlorophenyl)-2-(pyridin-3-yl)pyrimidin-4-yl)piperidin-3-ol] | < 10 nM
4 | COC1CCN(c2cc(-c3ccc(Cl)cc3)nc(-c3cccnc3)n2)CC1 [Example 45, 4-(4-chlorophenyl)-6-(4-methoxypiperidin-1-yl)-2-(pyridin-3-yl)pyrimidine] | 10 to 100 nM
5 | CC1CCCCN1c1cc(-c2ccc(Cl)cc2)nc(-c2cccnc2)n1 (centres unmarked) [Example 47, 4-(4-chlorophenyl)-6-(2-methylpiperidin-1-yl)-2-(pyridin-3-yl)pyrimidine] | > 1000 nM
6 | CC1CCCN(c2cc(-c3ccc(Cl)cc3)nc(-c3cccnc3)n2)C1 (centres unmarked) [Example 48, 4-(4-chlorophenyl)-6-(3-methylpiperidin-1-yl)-2-(pyridin-3-yl)pyrimidine] | > 1000 nM
7 | CC1CCCC(C)N1c1cc(-c2ccc(Cl)cc2)nc(-c2cccnc2)n1 (centres unmarked) [Example 49, 4-(4-chlorophenyl)-6-(2,6-dimethylpiperidin-1-yl)-2-(pyridin-3-yl)pyrimidine] | > 1000 nM
8 | FC1(F)CCCN(c2cc(-c3ccc(Cl)cc3)nc(-c3cccnc3)n2)C1 [Example 51, 4-(4-chlorophenyl)-6-(3,3-difluoropiperidin-1-yl)-2-(pyridin-3-yl)pyrimidine] | 100 to 1000 nM
9 | CCC1CCCN(c2cc(-c3ccc(Cl)cc3)nc(-c3cccnc3)n2)C1 (centres unmarked) [Example 53, 4-(4-chlorophenyl)-6-(3-ethylpiperidin-1-yl)-2-(pyridin-3-yl)pyrimidine] | > 1000 nM
10 | Clc1ccc(-c2cc(NCC3CCCNC3)nc(-c3cccnc3)n2)cc1 (centres unmarked) [Example 55, 6-(4-chlorophenyl)-N-(piperidin-3-ylmethyl)-2-(pyridin-3-yl)pyrimidin-4-amine] | > 1000 nM
11 | Clc1ccc(-c2cc(NCC3CCNCC3)nc(-c3cccnc3)n2)cc1 [Example 56, 6-(4-chlorophenyl)-N-(piperidin-4-ylmethyl)-2-(pyridin-3-yl)pyrimidin-4-amine] | 100 to 1000 nM
12 | CN1CCC(Nc2cc(-c3ccc(Cl)cc3)nc(-c3cccnc3)n2)CC1 [Example 57, 6-(4-chlorophenyl)-N-(1-methylpiperidin-4-yl)-2-(pyridin-3-yl)pyrimidin-4-amine] | > 1000 nM
13 | Clc1ccc(-c2cc(NCCC3CCNCC3)nc(-c3cccnc3)n2)cc1 [Example 58, 6-(4-chlorophenyl)-N-(2-(piperidin-4-yl)ethyl)-2-(pyridin-3-yl)pyrimidin-4-amine] | > 1000 nM
14 | NCC1CCCCN1c1cc(-c2ccc(Cl)cc2)nc(-c2cccnc2)n1 (centres unmarked) [Example 59, (1-(6-(4-chlorophenyl)-2-(pyridin-3-yl)pyrimidin-4-yl)piperidin-2-yl)methanamine] | > 1000 nM
15 | N[C@H]1CCCN(c2cc(-c3ccc(Cl)cc3)nc(-c3cccnc3)n2)C1 [Example 61, (S)-1-(6-(4-chlorophenyl)-2-(pyridin-3-yl)pyrimidin-4-yl)piperidin-3-amine] | > 1000 nM
16 | NC[C@@H]1CCCN(c2cc(-c3ccc(Cl)cc3)nc(-c3cccnc3)n2)C1 [Example 63, (S)-(1-(6-(4-chlorophenyl)-2-(pyridin-3-yl)pyrimidin-4-yl)piperidin-3-yl)methanamine] | > 1000 nM

Continued, values first:

Row | IC50 | Compound
17 | 10 to 100 nM | O[C@@H]1CCC[C@H]1Nc1cc(-c2ccc(Cl)cc2)nc(-c2cccnc2)n1 [Example 29, (1R,2R)-2-((6-(4-chlorophenyl)-2-(pyridin-3-yl)pyrimidin-4-yl)amino)cyclopentan-1-ol]
18 | 10 to 100 nM | O[C@H]1CCC[C@H]1Nc1cc(-c2ccc(Cl)cc2)nc(-c2cccnc2)n1 [Example 30, (1S,2R)-2-((6-(4-chlorophenyl)-2-(pyridin-3-yl)pyrimidin-4-yl)amino)cyclopentan-1-ol]
19 | 100 to 1000 nM | Clc1ccc(-c2cc(NCc3cccnc3)nc(-c3cccnc3)n2)cc1 [Example 32, 6-(4-chlorophenyl)-2-(pyridin-3-yl)-N-(pyridin-3-ylmethyl)pyrimidin-4-amine]
20 | 10 to 100 nM | O[C@H]1CC[C@H](Nc2cc(-c3ccc(Cl)cc3)nc(-c3cccnc3)n2)CC1 [Example 34, trans-4-((6-(4-chlorophenyl)-2-(pyridin-3-yl)pyrimidin-4-yl)amino)cyclohexan-1-ol]
21 | 10 to 100 nM | OCC1CCCCN1c1cc(-c2ccc(Cl)cc2)nc(-c2cccnc2)n1 (centres unmarked) [Example 36, (1-(6-(4-chlorophenyl)-2-(pyridin-3-yl)pyrimidin-4-yl)piperidin-2-yl)methanol]
22 | > 1000 nM | OCCC1CCCCN1c1cc(-c2ccc(Cl)cc2)nc(-c2cccnc2)n1 (centres unmarked) [Example 37, 2-(1-(6-(4-chlorophenyl)-2-(pyridin-3-yl)pyrimidin-4-yl)piperidin-2-yl)ethan-1-ol]
23 | 10 to 100 nM | OC1CCCN(c2cc(-c3ccc(Cl)cc3)nc(-c3cccnc3)n2)C1 (centres unmarked) [Example 39, 1-(6-(4-chlorophenyl)-2-(pyridin-3-yl)pyrimidin-4-yl)piperidin-3-ol]
24 | 10 to 100 nM | OCC1CCCN(c2cc(-c3ccc(Cl)cc3)nc(-c3cccnc3)n2)C1 (centres unmarked) [Example 40, (1-(6-(4-chlorophenyl)-2-(pyridin-3-yl)pyrimidin-4-yl)piperidin-3-yl)methanol]
25 | < 10 nM | OC1CCN(c2cc(-c3ccc(Cl)cc3)nc(-c3cccnc3)n2)CC1 [Example 41, 1-(6-(4-chlorophenyl)-2-(pyridin-3-yl)pyrimidin-4-yl)piperidin-4-ol]
26 | < 10 nM | OCCCC1CCN(c2cc(-c3ccc(Cl)cc3)nc(-c3cccnc3)n2)CC1 [Example 44, 3-(1-(6-(4-chlorophenyl)-2-(pyridin-3-yl)pyrimidin-4-yl)piperidin-4-yl)propan-1-ol]
27 | 100 to 1000 nM | Clc1ccc(-c2cc(N3CCCCC3)nc(-c3cccnc3)n2)cc1 [Example 46, 4-(4-chlorophenyl)-6-(piperidin-1-yl)-2-(pyridin-3-yl)pyrimidine]
28 | > 1000 nM | CC1CC(C)CN(c2cc(-c3ccc(Cl)cc3)nc(-c3cccnc3)n2)C1 (centres unmarked) [Example 50, 4-(4-chlorophenyl)-6-(3,5-dimethylpiperidin-1-yl)-2-(pyridin-3-yl)pyrimidine]
29 | 100 to 1000 nM | FC(F)(F)C1CCCN(c2cc(-c3ccc(Cl)cc3)nc(-c3cccnc3)n2)C1 (centres unmarked) [Example 52, 4-(4-chlorophenyl)-2-(pyridin-3-yl)-6-(3-(trifluoromethyl)piperidin-1-yl)pyrimidine]
30 | > 1000 nM | Clc1ccc(-c2cc(NC3CCNCC3)nc(-c3cccnc3)n2)cc1 [Example 54, 6-(4-chlorophenyl)-N-(piperidin-4-yl)-2-(pyridin-3-yl)pyrimidin-4-amine]
31 | > 1000 nM | N[C@@H]1CCCN(c2cc(-c3ccc(Cl)cc3)nc(-c3cccnc3)n2)C1 [Example 60, (R)-1-(6-(4-chlorophenyl)-2-(pyridin-3-yl)pyrimidin-4-yl)piperidin-3-amine]
32 | > 1000 nM | NCC1CCCN(c2cc(-c3ccc(Cl)cc3)nc(-c3cccnc3)n2)C1 (centres unmarked) [Example 62, (1-(6-(4-chlorophenyl)-2-(pyridin-3-yl)pyrimidin-4-yl)piperidin-3-yl)methanamine]
